Columns and labels:
Experiment in all cases: relative viability (nuclei count vs DMSO), 5 days (fraction); higher = more cells survive
Cediranib + Lapatinib = compound: COc1cc2c(Oc3ccc4[nH]c(C)cc4c3F)ncnc2cc1OCCCN1CCCC1 [Cediranib] + CS(=O)(=O)CCNCc1ccc(-c2ccc3ncnc(Nc4ccc(OCc5cccc(F)c5)c(Cl)c4)c3c2)o1 [Lapatinib] (partner 2 µM)
Summary of the method: (§1)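 Five library-drug doses in √10 steps were combined with a fixed anchor-drug dose, or a single drug was given alone, by pin tool to lung cancer cell lines in 1536-well plates the day after seeding. Nuclei were stained and counted after 5 days. Relative viability is the nuclei count in treated wells over that in vehicle wells, taken as the median of duplicate plates.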

Decitabine + Alpelisib = compound: Nc1ncn([C@H]2C[C@H](O)[C@@H](CO)O2)c(=O)n1 [Decitabine] + Cc1nc(NC(=O)N2CCC[C@H]2C(N)=O)sc1-c1ccnc(C(C)(C)C(F)(F)F)c1 [Alpelisib] (partner 2 µM)
Summary of the method: as §1

Decitabine + Phenformin = compound: Nc1ncn([C@H]2C[C@H](O)[C@@H](CO)O2)c(=O)n1 [Decitabine] + N=C(N)NC(=N)NCCc1ccccc1 [Phenformin] (partner 250 µM)
Summary of the method: as §1

Cediranib + Foretinib = compound: COc1cc2c(Oc3ccc4[nH]c(C)cc4c3F)ncnc2cc1OCCCN1CCCC1 [Cediranib] + COc1cc2c(Oc3ccc(NC(=O)C4(C(=O)Nc5ccc(F)cc5)CC4)cc3F)ccnc2cc1OCCCN1CCOCC1 [Foretinib] (partner 0.25 µM)
Summary of the method: as §1

UMC-11
relative viability (Cediranib + Lapatinib; first compound 0.04 µM): 1.07
relative viability (Cediranib + Lapatinib; first compound 0.1265 µM): 0.48
relative viability (Cediranib + Lapatinib; first compound 0.4 µM): 0.938
relative viability (Cediranib + Lapatinib; first compound 1.265 µM): 0.525
relative viability (Cediranib + Lapatinib; first compound 4 µM): 0.963
relative viability (Decitabine + Alpelisib; first compound 0.04 µM): 0.848
relative viability (Decitabine + Alpelisib; first compound 0.1265 µM): 0.535
relative viability (Decitabine + Alpelisib; first compound 0.4 µM): 0.481
relative viability (Decitabine + Alpelisib; first compound 1.265 µM): 0.309
relative viability (Decitabine + Alpelisib; first compound 4 µM): 0.281
relative viability (Decitabine + Phenformin; first compound 0.04 µM): 0.31
relative viability (Decitabine + Phenformin; first compound 0.1265 µM): 0.32
relative viability (Decitabine + Phenformin; first compound 0.4 µM): 0.308
relative viability (Decitabine + Phenformin; first compound 1.265 µM): 0.266
relative viability (Decitabine + Phenformin; first compound 4 µM): 0.274
relative viability (Cediranib + Foretinib; first compound 0.04 µM): 1.1
relative viability (Cediranib + Foretinib; first compound 0.4 µM): 1.03
relative viability (Cediranib + Foretinib; first compound 4 µM): 1.05

— the supplement of paper PMC10307832
